Measured values reported in patent US11078250B2, “High-activity long-acting hypoglycemic fusion protein as well as preparation method and medical application thereof” (China Pharmaceutical University, priority 2016, dated 2021).
“And” between values parts separate entries of the source, which are not always exact repeats. Equal values may be shown once.

Key:
[1] = test system: type II diabetic mice C57BL/KsJ-db/db (BKS.Cg-Dock7m+/+Leprdb/JNju); test: Acute hypoglycemic test in type II diabetic model mice; type: in vivo, mouse
Experimental: (§1) 50 six-week-old type II diabetic mice C57BL/KsJ-db/db (namely, S.Cg-Dock7^m+/+Lepr^db/JNju mouse) and 10 control mice C57BLKS/JNju are purchased from Nanjing Biomedical Research Institute of Nanjing University (certificate number: 201602819, and license number: SCXK (Su) 2015-0001). The mouse are fed in a SPF-grade animal house with a humidity of 40-60% at room temperature of 25° C. for 12 h each under light and dark conditions, and an experiment is carried out after adaptive feeding for one week. Blood glucose concentration is measured using a Roche Accu-Chek® Performa glucometer and blood glucose test paper. Experiment grouping and administration modes are seen in Table 1.
Blood glucose levels of each group of mouse are detected before administration. As shown in Table 2 and FIG. 7, blood glucose levels of a model group, Ex-4, EX-mhIgG1Fc and EX-L21K-mhIgG1Fc (5-20 nmol/kg) are respectively 24±0.81, 24.53±1.20, 23.31±1.05, 23.04±1.23, 22.41±1.51 and 24.99±1.43 mM. There is a significant difference (P<0.0001) compared with 8.58±0.25 mM in a normal control group. […] Moreover, there is no difference between the drug groups and the model group, and subsequent experiments can be carried out.
After mouse are administrated, blood glucose levels after administration for 1, 2, 4, 8, 12, 24, 36, 48, 60, 72, 96 and 120 h are continuously monitored. […] The blood glucoses of mouse in Ex-4 group are gradually raised back to a level before administration, and the blood glucoses of mouse in EX-mhIgG1Fc group are gradually raised back to a level before administration after administration for 48 h. The hypoglycemic effects of various dosage group of EX-L21K-mhIgG1Fc are more durable, wherein, the hypoglycemic effect of 5 nmol/kg EX-L21K-mhIgG1Fc lasts until 72 h after administration (P<0.01 vs model group), the hypoglycemic effects of 10 nmol/kg EX-L21K-mhIgG1Fc (P<0.01 vs model group) and 20 nmol/kg EX-L21K-mhIgG1Fc (P<0.0001 vs model group) are still present after administration for 96 h.
Compared with Ex-4, AUCs0-24 h of various groups of EX-mhIgG1Fc and EX-L21K-mhIgG1Fc (5-20 nmol/kg) drugs has no significant difference.

[2] = test system: type II diabetic mice C57BL/KsJ-db/db (BKS.Cg-Dock7m+/+Leprdb/JNju); test: Intraperitoneal glucose tolerance test (IPGTT); type: in vivo, mouse; settings: for IPGTT glucose AUC0-180 min: n=8, mean ± SEM; for Fasting blood glucose vs model group: fasted 18 h, Ex-4 and EX-mhIgG1Fc 10 nmol/kg, EX-L21K-mhIgG1Fc 5-20 nmol/kg, ip, P<0.0001
Experimental: as §1
Various groups of animals are fasted overnight for 18 h before test. Firstly, normal saline, Ex-4, EX-mhIgG1Fc and EX-L21K-mhIgG1Fc are respectively intraperitoneally injected. After administration for 2 h, 1.5 g/kg glucose is intraperitoneally injected to each mouse, blood is taken via caudal vein, and blood glucose concentrations in −120, 0, 15, 30, 45, 60, 90, 120 and 180 min are recorded. During the test, animals are normally dieted and supplied with water.
Area under the curve is further applied for analysis.

[3] = cited from earlier work
[4] = 0 h (before administration), 10 nmol/kg ip, n=8, mean ± SEM
[5] = 1 h after administration, 10 nmol/kg ip
[6] = 2 h after administration, 10 nmol/kg ip
[7] = 4 h after administration, 10 nmol/kg ip
[8] = 8 h after administration, 10 nmol/kg ip
[9] = 12 h after administration, 10 nmol/kg ip
[10] = 24 h after administration, 10 nmol/kg ip
[11] = 36 h after administration, 10 nmol/kg ip
[12] = 48 h after administration, 10 nmol/kg ip
[13] = 60 h after administration, 10 nmol/kg ip
[14] = 72 h after administration, 10 nmol/kg ip
[15] = 96 h after administration, 10 nmol/kg ip
[16] = 120 h after administration, 10 nmol/kg ip
[17] = Ex-4 and EX-mhIgG1Fc 10 nmol/kg, EX-L21K-mhIgG1Fc 5-20 nmol/kg, ip
[18] = 10 nmol/kg ip 120 min before 1.5 g/kg glucose ip

In the case of “EX-L21K-mhIgG1Fc: fusion protein of Exendin-4 mutant EX-L21K, Gly-rich linker peptide, optimally mutated human IgG1 hinge region and constant regions CH2 and CH3; SEQ ID NO: 11”, the Blood glucose ([1]; 0 h (before administration), 5 nmol/kg ip, n=8, mean ± SEM) is reported as 23.04 ± 1.23 mM and 23.04 mM, the Blood glucose [1, 4] is reported as 22.41 ± 1.51 mM and 22.41 mM and the Blood glucose ([1]; 0 h (before administration), 20 nmol/kg ip, n=8, mean ± SEM) is reported as 24.99 ± 1.43 mM and 24.99 mM. The “Time after administration to which hypoglycemic effect lasts” value (shortened to “Time … to which hypoglycemic effect lasts”) ([1]; 5 nmol/kg ip, P<0.01 vs model group) was 72 h, the “Blood glucose AUC0-24 h” value ([1]; 5 nmol/kg ip, n=8, mean ± SEM) was 296.69 ± 34.39 mM·h and the “Time … to which hypoglycemic effect lasts” value ([1]; 10 nmol/kg ip) was no less than 96 h. The “Blood glucose AUC0-24 h” value ([1]; 10 nmol/kg ip, n=8, mean ± SEM) was 237.34 ± 16.87 mM·h, the “Time … to which hypoglycemic effect lasts” value ([1]; 20 nmol/kg ip, P<0.0001 vs model group) was no less than 96 h and the “Blood glucose AUC0-24 h” value ([1]; 20 nmol/kg ip, n=8, mean ± SEM) was 230.80 ± 20.09 mM·h. The “Time … to which hypoglycemic effect lasts” value ([1]; 5-20 nmol/kg ip) was 96 h, the Blood glucose ([1]; 1 h after administration, 5 nmol/kg ip) was 15.18 mM and the Blood glucose [1, 5] was 15.2 mM. It also gave a Blood glucose ([1]; 1 h after administration, 20 nmol/kg ip) of 14.98 mM, a Blood glucose ([1]; 2 h after administration, 5 nmol/kg ip) of 11.28 mM and a Blood glucose [1, 6] of 14.3 mM. The Blood glucose ([1]; 2 h after administration, 20 nmol/kg ip) was 12.46 mM, the Blood glucose ([1]; 4 h after administration, 5 nmol/kg ip) was 9.16 mM and the Blood glucose [1, 7] was 8.48 mM. It also gave a Blood glucose ([1]; 4 h after administration, 20 nmol/kg ip) of 9.54 mM, a Blood glucose ([1]; 8 h after administration, 5 nmol/kg ip) of 9.91 mM and a Blood glucose [1, 8] of 8.01 mM. The Blood glucose ([1]; 8 h after administration, 20 nmol/kg ip) was 8.73 mM, the Blood glucose ([1]; 12 h after administration, 5 nmol/kg ip) was 13.06 mM and the Blood glucose [1, 9] was 10.13 mM. It also gave a Blood glucose ([1]; 12 h after administration, 20 nmol/kg ip) of 53 mM, a Blood glucose ([1]; 24 h after administration, 5 nmol/kg ip) of 13.58 mM and a Blood glucose [1, 10] of 8.5 mM. It also gave a Blood glucose ([1]; 24 h after administration, 20 nmol/kg ip) of 7.49 mM, a Blood glucose ([1]; 36 h after administration, 5 nmol/kg ip) of 17.34 mM and a Blood glucose [1, 11] of 12.9 mM. It also gave a Blood glucose ([1]; 36 h after administration, 20 nmol/kg ip) of 11.95 mM, a Blood glucose ([1]; 48 h after administration, 5 nmol/kg ip) of 16.46 mM and a Blood glucose [1, 12] of 12.96 mM. For the same substance, the Blood glucose ([1]; 48 h after administration, 20 nmol/kg ip) was 12.2 mM, the Blood glucose ([1]; 60 h after administration, 5 nmol/kg ip) was 22.39 mM and the Blood glucose [1, 13] was 21.36 mM. It also gave a Blood glucose ([1]; 60 h after administration, 20 nmol/kg ip) of 21.5 mM, a Blood glucose ([1]; 72 h after administration, 5 nmol/kg ip) of 18.85 mM and a Blood glucose [1, 14] of 17.4 mM. It also gave a Blood glucose ([1]; 72 h after administration, 20 nmol/kg ip) of 14.1 mM, a Blood glucose ([1]; 96 h after administration, 5 nmol/kg ip) of 18.71 mM and a Blood glucose [1, 15] of 17.33 mM. For the same substance, the Blood glucose ([1]; 96 h after administration, 20 nmol/kg ip) was 14.46 mM, the Blood glucose ([1]; 120 h after administration, 5 nmol/kg ip) was 23.35 mM and the Blood glucose [1, 16] was 22.96 mM. For the same substance, the Blood glucose ([1]; 120 h after administration, 20 nmol/kg ip) was 22.76 mM, the “Blood glucose AUC0-72 h compared with model group” value [1, 17] was “significantly reduced” and the “Blood glucose AUC0-120 h compared with model group” value [1, 17] was “significantly reduced”. The “IPGTT glucose AUC0-180 min” value ([2]; 5 nmol/kg ip 120 min before 1.5 g/kg glucose ip) was 2338 ± 181.2 mM·min, the “IPGTT glucose AUC0-180 min” value [2, 18] was 2035 ± 169.6 mM·min and the “IPGTT glucose AUC0-180 min” value ([2]; 20 nmol/kg ip 120 min before 1.5 g/kg glucose ip) was 2082 ± 119.9 mM·min. The “Fasting blood glucose vs model group” value [2] was “significantly reduced”.
With Exendin-4 [Ex-4, reference compound] the Blood glucose [1, 4] was 24.53 ± 1.20 mM and 24.53 mM, the “Blood glucose AUC0-24 h” value ([1]; 10 nmol/kg ip, n=8, mean ± SEM) was 374.46 ± 6.20 mM·h and the Blood glucose [1, 5] was 10.63 mM. It also gave a Blood glucose [1, 6] of 10.79 mM, a Blood glucose [1, 7] of 10.71 mM and a Blood glucose [1, 8] of 15.31 mM. It also gave a Blood glucose [1, 9] of 24.43 mM, a Blood glucose [1, 10] of 20.48 mM and a Blood glucose [1, 11] of 26.59 mM. It also gave a Blood glucose [1, 12] of 24.76 mM, a Blood glucose [1, 13] of 27.19 mM and a Blood glucose [1, 14] of 25.34 mM. The Blood glucose [1, 15] was 23.68 mM, the Blood glucose [1, 16] was 24.83 mM and the “Blood glucose AUC0-72 h compared with model group” value [1, 17] was “no significant change”. The “Blood glucose AUC0-120 h compared with model group” value [1, 17] was “no significant change”, the “Time after administration at which hypoglycemic effect is exhibited” value [1, 17] was 1 h and the “IPGTT glucose AUC0-180 min” value [2, 18] was 2058 ± 109.5 mM·min. For the same substance, the “Fasting blood glucose vs model group” value [2] was “significantly reduced” and the in-vivo half-life period [3] was 3.3˜4 hours.
